Reference: US5993846A, “Bioadhesive emulsion preparations for enhanced drug delivery” (Pharmos Corporation, priority 1998, dated 1999)

System: blood clotting
Assay type: in vivo, Male Sprague Dawley rats
Method: Clotting time of blood droplets obtained by tail […] used to evaluate the systemic effect of LMWH following intracolonic (i.c.) or intravenous (i.v.) treatment of rats. Male Sprague Dawley rats (200-300 g) were used for all of these experiments. Following preliminary studies, experiments were performed between 8:00-13:00 hours in order to reduce diurnal changes in responsiveness to heparins. Rats were anesthetized with 0.3 ml […] (2:1), weighed, and the initial blood clotting time was determined. Each rat was then treated with either Fragmin or control vehicle (i.v. or i.c.). Intravenous treatment was performed by exposing the femoral […] and injecting in the direction of blood flow. Intracolonic treatment was performed by opening the peritoneal cavity at the midline, locating the secum, and injecting into the large intestine, approximately 2 cm from the secum. The time of treatment was considered as T. At the indicated intervals, blood clotting time was determined. The pharmacological activity, denoted PA %, was used to evaluate the relative effect of various routes of administration and dose levels on blood clotting time. PA % was calculated for the individual rats and the values presented are the mean of each group. […] Blood clotting was measured by […] […] The clotting time was measured with a stop watch that was started when the drops were collected.

## Low molecular weight heparin [LMWH]
i.v., groups A-C, FIG. 4
  dose-response of blood clotting time and maximal effect, ME %: approximately linear dose-response
rat, in vivo
  TMAX of blood clotting time: 1.5 h
